Values of other authors, collected in US6811840B1, “Decorative transfer process” (Stahls' Inc., priority 1996, dated 2004).

Cc1ccccc1/N=N/c1ccc(/N=N/c2c(O)ccc3ccccc23)c(C)c1 [Oil Red 234]
solubility in water (in words): insoluble in water

CCCCCNc1ccc(NCCCCC)c2c1C(=O)c1ccccc1C2=O [Oil Blue N]
solubility in water (in words): insoluble in water

CCCCNc1ccc(NCCCC)c2c1C(=O)c1ccccc1C2=O [Sudan Blue 670]
solubility in water (at 20° C.): less than 1 gram of dye per liter of water

Oc1ccc2ccccc2c1N=Nc1ccccc1 [Sudan Orange 220]
solubility in water (in words): insoluble in water

CC1(C)Nc2cccc3c(N=Nc4ccc(N=Nc5ccccc5)c5ccccc45)ccc(c23)N1 [Sudan Black X60]
solubility in water (in words): insoluble in water
